Consider five molecules from ChEMBL document CHEMBL1201862, “PubChem BioAssay data set” (2004).

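96-well plates; 48 h exposure; 5 concentrations. Endpoints by linear interpolation between flanking doses. Not reached: highest tested concentration assigned. Here, GI50 denotes the concentration required for 50% inhibition of growth.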 The source made the active and inactive calls. Cut-off read from the data, not from the text of the source: active = GI50 up to about 1.1 µM and inactive = higher. Some results are limits rather than exact numbers.

Test systems include A498; A549; CAKI-1; HCC 2998; HCT-116; HOP-92; Hs-578T; MDA-N; Malme-3M; NCI-H522; OVCAR-8; PC-3; RPMI-8226; SF-268; SK-MEL-28; SK-MEL-2; SK-MEL-5; SNB-75; TK-10; UACC-62.
Common to all, as to assay: inhibition of tumour cell growth, NCI panel, 48 h

As for `CCOC(=O)c1cnccc1CC1(C#N)c2ccccc2C=CN1C(=O)c1ccccc1` (stereo not given), the GI50 with A498 was 96.4 µM (inactive); in the assay on A549, 34.4 µM (inactive); in the assay on CAKI-1 it was 27.2 µM (inactive); in the assay with HCC 2998, 30.3 µM (inactive); in the assay on HCT-116, 29.2 µM (inactive); in the assay on HOP-92, 37.5 µM (inactive). Besides, the GI50 in the assay with Hs-578T is 13 µM (inactive); with MDA-N, 18.1 µM (inactive); in the assay with Malme-3M, 6.17 µM (inactive); with NCI-H522 it was 18.6 µM (inactive); with OVCAR-8, 16.2 µM (inactive); in the assay on PC-3 it was 20.4 µM (inactive). For the same molecule, the GI50 with RPMI-8226 was 4.91 µM (inactive); with SF-268, 23.6 µM (inactive); in the assay on SK-MEL-28, 58.2 µM (inactive); with SK-MEL-2 it was 21.6 µM (inactive); with SK-MEL-5, 15.3 µM (inactive); in the assay on SNB-75, 12.9 µM (inactive). In addition, the GI50 in the assay with TK-10 was 37.5 µM (inactive); in the assay on UACC-62, 23.9 µM (inactive).
In the case of `CCOC1CN=C(Nc2cccc3ccccc23)S1` (stereo not given), the GI50 in the assay on A498, with A549, with CAKI-1, in the assay on HCC 2998, in the assay on HCT-116 and with HOP-92 was > 10 µM (inactive) in each case. The GI50 with Hs-578T, in the assay with MDA-N, in the assay with Malme-3M, in the assay on NCI-H522, in the assay on OVCAR-8 and in the assay with PC-3 was > 10 µM (inactive) each time. Moreover, the GI50 with RPMI-8226, in the assay with SF-268, in the assay on SK-MEL-28, in the assay on SK-MEL-2, with SK-MEL-5 and with SNB-75 was > 10 µM (inactive) in each case. The GI50 in the assay with TK-10 and in the assay with UACC-62 was > 10 µM (inactive) in each case.
Regarding `Cc1c(-c2ccccc2)c(C#N)c2nnn(-c3ccc(Cl)cc3)c(=O)n12`, the GI50 in the assay on A498 was 68.7 µM (inactive); in the assay with A549, 21.5 µM (inactive); with CAKI-1, 13.3 µM (inactive); with HCC 2998 it was 10.6 µM (inactive); in the assay with HCT-116, 12.8 µM (inactive); with HOP-92, > 100 µM (inactive). For the same molecule, the GI50 in the assay on Hs-578T is 71.4 µM (inactive); in the assay on MDA-N, 24.2 µM (inactive); in the assay with Malme-3M, 81.3 µM (inactive); in the assay on NCI-H522 it was 10.9 µM (inactive); in the assay on OVCAR-8, 25.3 µM (inactive); in the assay on PC-3, 22.2 µM (inactive). Also, the GI50 is 23.5 µM (inactive) with RPMI-8226; 32.6 µM (inactive) with SF-268; > 100 µM (inactive) in the assay with SK-MEL-28; 26.8 µM (inactive) in the assay with SK-MEL-2; 1.14 µM (inactive) with SK-MEL-5; 30.9 µM (inactive) in the assay with SNB-75. Further, the GI50 in the assay with TK-10 is 77.1 µM (inactive); in the assay on UACC-62 it was 0.869 µM (active).
`COc1cc2c(NCCN(C)C)nc3c4cc5c(cc4ccc3c2cc1OC)OCO5`: the GI50 in the assay with A498 was 2.76 µM (inactive); with A549, 2.75 µM (inactive); in the assay on CAKI-1, 2.73 µM (inactive); with HCC 2998, 4.59 µM (inactive); with HCT-116 it was 3.3 µM (inactive); with HOP-92 it was 4.82 µM (inactive). Moreover, the GI50 in the assay on Hs-578T is 5.21 µM (inactive); in the assay with MDA-N, 3.57 µM (inactive); in the assay with Malme-3M it was 4.14 µM (inactive); in the assay on NCI-H522, 3.9 µM (inactive); with OVCAR-8, 3.13 µM (inactive); with PC-3, 5.04 µM (inactive). Also, the GI50 in the assay on RPMI-8226 is 2.56 µM (inactive); with SF-268, 4.78 µM (inactive); with SK-MEL-28, 4.93 µM (inactive); in the assay on SK-MEL-2, 6.04 µM (inactive); in the assay on SK-MEL-5, 2.84 µM (inactive); in the assay on SNB-75, 2.18 µM (inactive). The figures for the GI50 with TK-10 and with UACC-62 were 2.72 µM (inactive) and 4.49 µM (inactive), respectively.
For `C/C(=N\NC(=S)N1CCCCC1)c1nc2cccnc2[nH]1`, the GI50 was 17.2 µM (inactive) in the assay on A498; 6.7 µM (inactive) in the assay on A549; 13.2 µM (inactive) with CAKI-1; 20.2 µM (inactive) with HCC 2998; 4.19 µM (inactive) in the assay with HCT-116; 7.48 µM (inactive) in the assay on HOP-92. The GI50 is 38.8 µM (inactive) in the assay on Hs-578T; 14.6 µM (inactive) in the assay with MDA-N; 27.9 µM (inactive) with Malme-3M; 12.9 µM (inactive) in the assay on NCI-H522; 4.19 µM (inactive) in the assay on OVCAR-8; 5.3 µM (inactive) with PC-3. In addition, the GI50 was 4.33 µM (inactive) in the assay on RPMI-8226; 5.51 µM (inactive) in the assay on SF-268; 16 µM (inactive) with SK-MEL-28; 22 µM (inactive) in the assay on SK-MEL-2; 4.03 µM (inactive) with SK-MEL-5; 38.4 µM (inactive) in the assay with SNB-75. Besides, the results for the GI50 with TK-10 and in the assay on UACC-62 were 21.3 µM (inactive) and 13.7 µM (inactive), respectively.
